From PubChem BioAssay AID1249 (Columbia University Molecular Screening Center, 2008)
Active and inactive are the calls of the source. How the calls were made is not given here.

Experiment: modifiers of cytoskeleton assembly, confirmation, imaging, high-content imaging, retest and dose response (AID 1249);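 further: compound exposure lasted 24 h before fixation; plate controls were untreated cells for no effect and reference compound treated cells for full effect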
Conditions: cell-based imaging, cytoskeleton assembly phenotype, high content; at 2 µM; stronger effect = higher value
With `C=CCNC(=O)C1CC(=O)N(c2ccc(OCC(=O)Nc3cccc(OC)c3)cc2)C1` (centres undefined) the inhibition was -2% (inactive).
With `COC1(c2ccccc2)NC(=S)NN=C1c1ccccc1` (centres undefined) the inhibition was -7.4% (inactive).
With `CCOC1=NC(C(=O)O)c2ccccc2/C(=C(/C)Cl)N1` (centres undefined) the inhibition was -4.3% (inactive).
In the case of `C=CCNC(=O)c1nn2cccnc2c1Cl`, the inhibition is reported as -9.5% (inactive).
With `COc1ccc(CCN(Cc2cc3cccc(C)c3[nH]c2=O)C(=O)N2CCCC2)cc1OC` the inhibition was 4.4% (inactive).
With `CCN(CC)S(=O)(=O)c1ccc(NC(=O)C(C)N(c2ccc(OC)cc2)S(C)(=O)=O)cc1` (centres undefined) the inhibition was -14.1% (inactive).
With `O=S(=O)(Nc1ccc(-n2cccc2)cc1)c1ccccc1` the inhibition was 0.5% (inactive).
For `CCN(CC)c1ccc(-c2nn3c(-c4n[nH]c5c4CCC5)nnc3s2)cc1`, the inhibition was 5.7% (inactive).
For `CC(N)Cc1ccccc1Sc1ccc(O)cc1` (centres undefined), the inhibition was 5.2% (inactive).
For `C/C(=N\O)c1ccc2c3ccccc3n(C)c2c1`, the inhibition was -20.9% (inactive).
For `CCCOc1ccc(C(=O)C(CN2CCOCC2)c2ccccc2)cc1` (centres undefined), the inhibition was 4.4% (inactive).
With `COC(=O)c1ccccc1NC(=O)c1ccc(-c2cccc(Cl)c2)o1` the inhibition was 2.6% (inactive).
In the case of `CN=c1sc2ccccc2n1CC(O)COc1ccccc1` (centres undefined), the inhibition is reported as -6.5% (inactive).
With `O=c1ccc(Oc2nc(N3CCOCC3)nc(N3CCOCC3)n2)nn1-c1ccccc1` the inhibition was 9.9% (inactive).
For `c1ccc(-n2ncc3c(NCc4ccccn4)ncnc32)cc1`, the inhibition was 24.5% (inactive).
With `Cn1nc(C(F)(F)F)c(C(=O)Nc2ccc(F)cc2F)c1Sc1ccc(C(F)(F)F)cc1` the inhibition was 13.2% (inactive).
With `Nc1cc(=O)nc(SCc2ccccc2)n1Cc1ccco1` the inhibition was 3.5% (inactive).
In the case of `CCCCC(=O)NC(=S)Nc1ccccc1C(=O)Nc1ccccc1`, the inhibition is reported as 3.2% (inactive).
In the case of `CCOC(=O)c1cnn(-c2nc(-c3ccc(C)cc3)cs2)c1C(F)(F)F`, the inhibition is reported as -7.1% (inactive).
For `COc1ccc(C(=O)c2ccc(N(C)C)cc2)c2ccccc12`, the inhibition was -3.3% (inactive).
With `O=C(O)c1ccc(CNCc2ccccc2Cl)cc1` the inhibition was 21.6% (inactive).
With `CCCCn1cnc2c1c(=O)[nH]c(=O)n2CCCC` the inhibition was -11.3% (inactive).
In the case of `CC1(C)OC(=O)C(=NNc2ccc(O)cc2)C(=O)O1`, the inhibition is reported as -11.1% (inactive).
For `O=C(Nc1ccc(Oc2ccccc2)cc1)C1CCCN(c2ncccn2)C1` (centres undefined), the inhibition was 11.6% (inactive).
In the case of `COC(=O)c1ccc(CSc2nnc(-c3ccncc3)n2Cc2ccccc2)o1`, the inhibition is reported as 1.6% (inactive).
In the case of `COc1ccc(CS(=O)(=O)/C(Cl)=C(/Cl)C(=O)Nc2ccc(OC)nc2)cc1`, the inhibition is reported as -6.2% (inactive).
With `CN(C)c1nc(N(C)C)nc(N(C#N)CCOc2ccccc2)n1` the inhibition was -6.3% (inactive).
With `COc1ccc(OC)c(NS(=O)(=O)c2ccc(N3CCCC3=O)cc2)c1` the inhibition was -3.6% (inactive).
With `CCNc1nc(NCC)n2c(SCc3ccc(F)cc3)nnc2n1` the inhibition was 4.8% (inactive).
For `Cc1ccc(S(=O)(=O)NC(CC(=O)O)c2ccco2)cc1` (centres undefined), the inhibition was 8.2% (inactive).
In the case of `Cc1ncc(CO)c2cc(C(N)=O)c(=Nc3ccccc3)oc12`, the inhibition is reported as -1.3% (inactive).
With `CC(=O)c1c(C)oc2ccc(N(C(C)=O)S(=O)(=O)c3ccc(Cl)c([N+](=O)[O-])c3)cc12` the inhibition was -11.2% (inactive).
With `O=C1N2CCSC2=NC1(Nc1ccccn1)C(F)(F)F` (centres undefined) the inhibition was -0.2% (inactive).
In the case of `CCOc1cc(S(=O)(=O)Nc2ccccc2CC)ccc1Cl`, the inhibition is reported as -1.7% (inactive).
In the case of `Cc1ccc(F)cc1NC(=O)c1ccc2c(c1)OCO2`, the inhibition is reported as -1.6% (inactive).
For `CC(C)CN(C(=O)COC(=O)CCc1c[nH]c2ccccc12)C1CCS(=O)(=O)C1` (centres undefined), the inhibition was -23.6% (inactive).
In the case of `CCOC(=O)C(C)Oc1cccc2c(=O)n(CC(=O)NCc3ccc4c(c3)OCO4)ccc12` (centres undefined), the inhibition is reported as 1.3% (inactive).
With `Cc1cccc(CS(=O)(=O)c2nnc([C@H](Cc3ccccc3)NC(=O)OC(C)(C)C)o2)c1` the inhibition was -5% (inactive).
With `COc1ccc(CC(=O)Nc2ccc(-c3noc(-c4cccc(OC)c4)n3)cc2)cc1` the inhibition was 13.6% (inactive).
